Data taken from BigSolDB 2.1.

COc1cc(CC#N)cc(OC)c1OC
solubility (mole fraction)
Conditions | 283.15 K | 288.15 K | 293.15 K | 298.15 K | 303.15 K | 308.15 K | 313.15 K | 318.15 K | 323.15 K
in DMF | 0.102 | 0.127 | 0.158 | 0.195 | 0.239 | 0.289 | 0.35 | 0.418 | 0.497
in cyclohexane | 0.000133 | 0.000248 | 0.000452 | 0.000814 | 0.00154 | 0.00253 | 0.00421 | 0.00671 | 0.011
in ethanol | 0.00753 | 0.00999 | 0.0141 | 0.0209 | 0.0327 | 0.0539 | 0.0927 | 0.167 | 0.312
in ethyl acetate | 0.0517 | 0.076 | 0.107 | 0.146 | 0.195 | 0.25 | 0.315 | 0.386 | 0.461
in isopropanol | 0.00545 | 0.00703 | 0.00942 | 0.0134 | 0.0199 | 0.0305 | 0.0497 | 0.0838 | 0.146
in isopropyl acetate | 0.0389 | 0.0537 | 0.0736 | 0.101 | 0.135 | 0.182 | 0.243 | 0.321 | 0.423
in methanol | 0.00958 | 0.0128 | 0.0179 | 0.0261 | 0.0402 | 0.0638 | 0.106 | 0.183 | 0.327
in n-butanol | 0.00774 | 0.00978 | 0.0129 | 0.018 | 0.0265 | 0.0409 | 0.0657 | 0.111 | 0.193
in n-heptane | 5.37e-05 | 0.000146 | 0.000336 | 0.000693 | 0.00141 | 0.00222 | 0.00361 | 0.00573 | 0.00905
in n-hexane | 0.000515 | 0.000732 | 0.00107 | 0.0016 | 0.00233 | 0.0035 | 0.00533 | 0.00803 | 0.0121
in n-propanol | 0.00747 | 0.00951 | 0.0127 | 0.0179 | 0.0264 | 0.041 | 0.0658 | 0.111 | 0.191
in sec-butanol | 0.00911 | 0.0137 | 0.0206 | 0.0314 | 0.0481 | 0.0755 | 0.118 | 0.189 | 0.301
